The record followed here is patent US12233129B2, “Methods and compositions for the treatment of cancer” (priority 2019, dated 2025).

Each structure is given as a SMILES string.

The subject of series [1] is human umbilical vein endothelial cells (HUVECs). Description: Effect on non-cancerous cells. The class given is cell-based. The text has this: We next performed a clonogenic survival assay (S4E) to determine colony formation in cancer cells in the presence and absence of VTD. […] At the same time, we measured the mot-2, p53, and UBXN2A protein levels in all these cell lines. […] To verify whether VTD-induced cell death is mediated through the UBXN2A-mot-2-p53 axis, we looked at the expression of p53 in the cytoplasm and nucleus of HCT-116 cells following VTD treatment. […] Due to a high cell death in higher doses of VTD, we could not use WB analysis for reliable p53 and UBXN2A detection and quantification. Finally, we checked the effect of VTD on non-cancerous cell lines. We incubated human umbilical vein endothelial cells (HUVECs), which mimic non-cancerous endothelial cells next to tumor cells, with VTD (S4G). […] Due to the different levels of the stress condition, we observed more sensitivity to VTD in LoVo and U2OS cells versus HCT-116 cells. In addition, lack of similar response in normal cells due to the absence of stresses and cytoplasmic mot-2 further explains VTD is therefore a drug that selectively targets cancer cell.

Another series has as its system LoVo. Description: Flow cytometry of CD44+ cancer stem cells. The following applies: intermediate-dose of VTD. The class given is cell-based, human. The text has this:
(§1) Based on the significant effect of long-term exposure in LoVo and U2OS, we hypothesized that VTD could be a potential complementary strategy alongside 5-FU, an effective drug with a high rate of resistant events in colon tumors. To answer this question, we first determined the minimum concentration of 5-FU that has no effect or a very mild effect on cell viability after 10 days' exposure in three cell lines HCT-116, LoVo, and U2OS (data not shown). We performed the 10 days' treatment using a combination of a low dose of VTD (50 μM or 100 μM) plus a suboptimal dose of 5-FU (1 μM or 5 μM).
(§2) FIG. 20: Sensitization of colon cancer cells to a long-term suboptimal dose of 5-fluorouracil exposure when combined with VTD. (A-D) (A) HCT-116, (B) LoVo, (C) SW-480, and (D) U2OS were treated with VTD (10-300 μM) for 10 days. […] (E-G) (E) HCT-116, (F) LoVo, and (G) U-2OS were treated with suboptimal doses of 5-FU and VTD (50 and 100 μM) for 10 days. […] (J) Tumor tissue lysates from 48 patients with colon cancer along the matched adjacent normal colon tissue lysates were probed with anti-UBXN2A and anti-Actin antibodies, followed by quantitation and normalization of signals. […]
In general terms: In flow cytometry, cells or beads pass a laser one at a time.

For the next series, the system named is U2OS. Description: Flow cytometry of CD44+ cancer stem cells. It is filed as cell-based, human. The following applies: intermediate-dose of VTD.
Text: as §1, §2

In a further series the test system is UBXN2A promoter. The experiment in a line: UBXN2A promoter luciferase high-throughput drug screen in HCT-116 cells. It is filed as cell-based, human. On the procedure:
Our in vivo results encouraged us to screen for compounds that can enhance expression of UBXN2A. Using the UBXN2A promoter upstream of a luciferase construct that was transiently transfected to HCT-116 cells, we performed a high-throughput drug screen with 1800 FDA approved drugs, synthetic compounds, and natural products. Forty-eight hours after transfection, cells were treated with compounds for 24 hours in triplicate (FIG. 16A). […] We looked at protein expression of UBXN2A as well as P47 (another member of the UBXD family) to confirm the selectivity of VH as a selective enhancer of UBXN2A protein in cells. […] We observed a different level of VH-dependent UBXN2A induction in different segments of the gastrointestinal system (esophagus to rectum; data not shown).
A cell-based screen was conducted in search of compounds that induce the expression of the UBXN2A gene. The 3.9K base of DNA upstream from the UBXN2A gene on human chromosome 2, including endogenous promoters and necessary enhancers as well as untranslated exon 1, was cloned into MCS-mGL.1, a Gaussia luciferase vector, and transiently transfected into HCT-116 colon cancer cells, with empty MCS-mGL.1 for background expression. […] A glow luciferase activity assay was conducted in triplicate followed by semi-quantitative RT-PCR and WB analysis for UBXN2A, p47 (negative control), or GAPDH± Veratrine or its purified form VTD. […]

A further series concerns Rictor. Description: Flow cytometry with anti-Rictor antibody in SW480 cells. The class given is cell-based, human. The following applies: VTD 5 days (semi-chronic treatment), N=3. Here is the method: In panels A-E, SW480 cells were treated with VTD for 5 days (a semi-chronic treatment) and the cells were collected and subjected to flow-cytometry analysis using anti-Rictor antibody.

`COc1ccc(C(=O)O[C@H]2CC[C@@]3(C)[C@@H]4CC[C@H]5[C@]6(O)C[C@H](O)[C@@]7(O)[C@@H](CN8C[C@@H](C)CC[C@H]8[C@@]7(C)O)[C@]6(O)C[C@@]53O[C@]24O)cc1OC` [VTD, Veratridine]: the “response of non-cancerous HUVEC cells” value in series [1] (first 24 hours) is on record as “did not respond”; in series [1] (highest dose of VTD, 48 hours), “moderate response”. Besides, the “abundance of CD44+ cancer stem cells” value in the series on LoVo and with U2OS was “reduces the abundance of the CD44+ cancer stem cells” each time. In addition, the UBXN2A promoter transactivation entry in the series with UBXN2A promoter is “transactivates the UBXN2A promoter”. Besides, in the series on Rictor, the “level of Rictor proteins” value is recorded as “significantly decreases Rictor proteins”.
